This passage reports EC50 results from BindingDB's records for doi:10.1021/jm9811256 (Academy of Sciences of The Czech Republic, 1999).

The nature of assay [1]: Inhibitory activity against herpes simplex virus type 1 (HSV-1) thymidine kinase (TK) VMW 1837 strain.
The nature of assay [2]: Inhibitory activity against varicella zoster virus thymidine kinase (VZV TK+) YS strain.
Assay [3] is described as follows: Inhibition of herpes simplex virus type 1 thymidine kinase (HSV-1 TK-) B2006 strain.
A short description of assay [4]: Inhibitory activity against varicella zoster virus thymidine kinase (VZV TK-) 07/1 strain.
Assay [5] can be described thus: Inhibitory activity against varicella zoster virus thymidine kinase (VZV TK+) OKA strain.

A value given as a limit tells only on which side of the number the result lay.

For `CCOP(=O)(O)COCCn1cnc2c(O)nc(N)nc21`, the EC50 (as a rule, the concentration at which the effect is half-maximal) in assay [1] is 6.3 µM; in assay [2], 0.0315 µM; in assay [3], 12.6 µM; in assay [4] it was 0.0126 µM; in assay [5], 0.0252 µM.
On to `CC(C)OP(=O)(COCCn1cnc2nc(N)nc(O)c21)OC(C)C`, for which the EC50 in assay [1] was greater than 535 µM; in assay [2], greater than 133 µM; in assay [3], greater than 535 µM; in assay [5] it was greater than 133 µM.
`CCOP(=O)(O)COCCn1cnc2c(N)nc(N)nc21`: the EC50 was found to be 474 µM in assay [1]; 15.8 µM in assay [2]; 632 µM in assay [3]; 6.32 µM in assay [4]; 12.6 µM in assay [5].
Take `O=P(O)(O)COCCn1cnc2c(S)ncnc21`: the EC50 was greater than 1370 µM in assay [1], greater than 172 µM in assay [2], greater than 1370 µM in assay [3] and greater than 172 µM in assay [4].
Consider `Nc1ncc2ncn(CCOCP(=O)(O)O)c2n1`, for which the EC50 in assay [1] is 256 µM; in assay [2], 102 µM; in assay [4], 98.8 µM; in assay [5], 219 µM.
For `CC(C)OP(=O)(COCCn1cnc2c(S)ncnc21)OC(C)C`, the concentration for a half-maximal effect (EC50) in assay [1] was greater than 1060 µM; in assay [2], greater than 133 µM; in assay [3], greater than 1060 µM; in assay [4], greater than 133 µM; in assay [5] it was greater than 133 µM.
On to `Nc1ncnc2c1ccn2CCOCP(=O)(O)O`, for which the half-maximal effective concentration (EC50) in assay [1] worked out at 551 µM; in assay [2], 73.4 µM; in assay [3], 1100 µM; in assay [5], 183 µM.
As to `Nc1nc(N)c2nc(Br)n(CCOCP(=O)(O)O)c2n1`, the half-maximal effective concentration (EC50) in assay [1] was 54.4 µM; in assay [2], 22.8 µM; in assay [3], 54.4 µM; in assay [4], 16.3 µM; in assay [5], 8.71 µM.
In the case of `CC(C)OP(=O)(COCCn1c(Br)nc2c(O)nc(N)nc21)OC(C)C`, the EC50 in assay [1] is 530 µM; in assay [2], greater than 110 µM; in assay [3], greater than 884 µM; in assay [4], greater than 110 µM; in assay [5], greater than 110 µM.
Consider `Nc1cnn(CCOCP(=O)(O)O)c(=O)n1`, for which the EC50 in assay [2], in assay [4] and in assay [5] was greater than 399 µM throughout.
`CC(C)OP(=O)(COCCn1cnc2c(N)nc(N)nc21)OC(C)C`: the EC50 in assay [1] was 214 µM; in assay [2], 96.6 µM; in assay [3] it was 644 µM; in assay [4] it was greater than 134 µM; in assay [5], greater than 134 µM.
On to `Nc1nc(O)c2nc(Br)n(CCOCP(=O)(O)O)c2n1`, for which the 50% effective concentration (EC50) in assay [1] was 130 µM; in assay [2] it was 48.9 µM; in assay [3] it was greater than 1080 µM; in assay [4] it was 76 µM; in assay [5], 10.8 µM.
`Nc1nccc2c1ncn2CCOCP(=O)(O)O`: the 50% effective concentration (EC50) in assay [2] was 367 µM; in assay [4] it was 257 µM; in assay [5], 183 µM.
Consider `CC(C)OP(=O)(COCCn1cnc2c(N)ncnc21)OC(C)C`, for which the half-maximal effective concentration (EC50) in assay [1] was greater than 1110 µM; in assay [2], 111 µM; in assay [3] it was greater than 1110 µM; in assay [4], 55.9 µM; in assay [5], 19.5 µM.
Turning to `CC(C)CCCCCOP(=O)(COCCn1cnc2c(Cl)nc(N)nc21)OCCCCCC(C)C`, the EC50 is greater than 30 µM in assay [1]; greater than 3.75 µM in assay [2]; greater than 30 µM in assay [3]; greater than 3.75 µM in assay [4]; greater than 3.75 µM in assay [5].
Turning to `Nc1nc(=O)n(CCOCP(=O)(O)O)cc1Br`, the EC50 in assay [1] was 60.9 µM; in assay [2] it was 15.2 µM; in assay [3] it was 914 µM; in assay [4] it was 9.14 µM; in assay [5], 18.2 µM.
Regarding `Nc1ccn(CCOCP(=O)(O)O)c(=O)n1`, the EC50 in assay [1] was 401 µM; in assay [2] it was 1600 µM; in assay [4], 602 µM; in assay [5], 602 µM.
As to `Nc1ncnc2c1nc(Br)n2CCOCP(=O)(O)O`, the EC50 in assay [2], in assay [4] and in assay [5] was greater than 142 µM each time.
On to `CC(C)OP(=O)(COCCn1cnc2c(Cl)nc(N)nc21)OC(C)C`, for which the EC50 in assay [2] is 25.5 µM; in assay [4] it was 22.9 µM; in assay [5], 33.1 µM.
Regarding `Nc1cc2c(ncn2CCOCP(=O)(O)O)c(N)n1`, the EC50 is 243 µM in assay [1]; greater than 17.4 µM in assay [2]; 1390 µM in assay [3]; greater than 17.4 µM in assay [4]; greater than 17.4 µM in assay [5].
Take `CCOP(=O)(O)COCCn1cnc2c(N)ncnc21`: the EC50 worked out at 497 µM in assay [1]; 199 µM in assay [2]; 497 µM in assay [3]; 149 µM in assay [4]; 132 µM in assay [5].
For the molecule `Nc1ccn(CCOCP(=O)(O)O)c(=O)c1`, the 50% effective concentration (EC50) was 261 µM in assay [2], 302 µM in assay [4] and greater than 402 µM in assay [5].
`Nc1nnc(N)c2c1ncn2CCOCP(=O)(O)O`: the EC50 in assay [1] is 1040 µM; in assay [2], greater than 173 µM; in assay [3], greater than 693 µM; in assay [4], greater than 173 µM; in assay [5], greater than 173 µM.
For the molecule `CC(C)OP(=O)(COCCn1cnc2c(O)nc(N)nc21)OC(C)C`, the 50% effective concentration (EC50) in assay [1] worked out at 642 µM; in assay [2], 37.4 µM; in assay [3], 642 µM; in assay [4], 83 µM; in assay [5], 53.5 µM.
On to `Nc1ccnc2c1ncn2CCOCP(=O)(O)O`, for which the EC50 was 551 µM in assay [1]; 734 µM in assay [2]; 734 µM in assay [3]; 1100 µM in assay [4]; greater than 1460 µM in assay [5].
Turning to `Nc1nc(Cl)c2ncn(CCOCP(=O)(O)O)c2n1`, the 50% effective concentration (EC50) in assay [1] was determined as 0.747 µM; in assay [2], 0.227 µM; in assay [3], 0.487 µM; in assay [4] it was 0.065 µM; in assay [5] it was 0.0195 µM.
`CC(C)OP(=O)(O)COCCn1cnc2c(O)nc(N)nc21`: the concentration for a half-maximal effect (EC50) stood at 17.2 µM in assay [1]; 0.0302 µM in assay [2]; 17.2 µM in assay [3]; 0.0151 µM in assay [4]; 0.0121 µM in assay [5].
In the case of `Nc1nccc(OCCOCP(=O)(O)O)n1`, the EC50 in assay [1] is greater than 802 µM; in assay [2], greater than 401 µM; in assay [4] it was greater than 401 µM; in assay [5], greater than 401 µM.
As to `Nc1cccc2c1ncn2CCOCP(=O)(O)O`, the EC50 was greater than 1470 µM in assay [1]; greater than 184 µM in assay [2]; greater than 1470 µM in assay [3]; greater than 184 µM in assay [4]; greater than 184 µM in assay [5].
On to `Nc1nc(S)c2c(ncn2CCOCP(=O)(O)O)n1`, for which the EC50 in assay [1] is 65.5 µM; in assay [2] it was 98.2 µM; in assay [3] it was greater than 327 µM; in assay [4], 65.5 µM; in assay [5], 121 µM.
As to `CC(C)OP(=O)(COCCn1c(Br)nc2c(N)nc(N)nc21)OC(C)C`, the 50% effective concentration (EC50) is greater than 886 µM in assay [1]; greater than 110 µM in assay [2]; greater than 886 µM in assay [3]; greater than 110 µM in assay [4]; 57.6 µM in assay [5].
As to `Nc1cc2ncn(CCOCP(=O)(O)O)c2c(O)n1`, the concentration giving a half-maximal response (EC50) in assay [1] and in assay [3] was greater than 693 µM throughout.
In the case of `Nc1nc(Cl)nc2c1ncn2CCOCP(=O)(O)O`, the EC50 in assay [2] turned out to be 104 µM; in assay [4], 61.7 µM; in assay [5], 130 µM.
For the molecule `Nc1nc(O)nc2c1ncn2CCOCP(=O)(O)O`, the EC50 was greater than 1380 µM in assay [1]; greater than 172 µM in assay [2]; greater than 1380 µM in assay [3]; greater than 172 µM in assay [4]; greater than 172 µM in assay [5].
In the case of `CC(C)CCCCCOP(=O)(COCCn1cnc2nc(N)nc(Cl)c21)OCCCCCC(C)C`, the half-maximal effective concentration (EC50) in assay [1] is greater than 30 µM; in assay [2], greater than 9.39 µM; in assay [3], greater than 30 µM; in assay [4], greater than 9.39 µM; in assay [5], greater than 9.39 µM.
As to `CC(C)CCCCCOP(=O)(COCCn1cnc2nc(N)nc(O)c21)OCCCCCC(C)C`, the EC50 was greater than 31.1 µM in assay [1]; 58.4 µM in assay [2]; greater than 31.1 µM in assay [3]; 50.6 µM in assay [4]; 62.3 µM in assay [5].
Take `CC(C)CCCCCOP(=O)(COCCn1cnc2c(N)ncnc21)OCCCCCC(C)C`: the EC50 in assay [1] was greater than 6.43 µM; in assay [2] it was 4.01 µM; in assay [3], greater than 6.43 µM; in assay [4], 6.63 µM; in assay [5], 4.82 µM.
Turning to `CC(C)CCCCCOP(=O)(O)COCCn1cnc2c(O)nc(N)nc21`, the concentration giving a half-maximal response (EC50) in assay [1] amounted to 597 µM; in assay [2], 32.3 µM; in assay [3], 597 µM; in assay [4] it was 87.1 µM; in assay [5], 3.98 µM.
Turning to `Nc1cc(N)c2ncn(CCOCP(=O)(O)O)c2n1`, the EC50 in assay [1] is 243 µM; in assay [2], greater than 174 µM; in assay [3], 522 µM; in assay [4], greater than 174 µM; in assay [5] it was greater than 174 µM.
Consider `Nc1nc(N)c2ncn(CCOCP(=O)(O)O)c2n1` [PMEDAP], for which the EC50 was 6.93 µM in assay [1], 6.93 µM in assay [2], 8.67 µM in assay [4] and 3.46 µM in assay [5].
Take `CC(C)OP(=O)(COCCn1ncc(N)nc1=O)OC(C)C`: the concentration giving a half-maximal response (EC50) in assay [2] was 290 µM; in assay [4], 239 µM; in assay [5] it was greater than 299 µM.
Take `CC(C)OP(=O)(COCCn1cnc2c(N)nc(Cl)nc21)OC(C)C`: the results for the EC50 in assay [2] and in assay [5] were 9.44 µM and 1.27 µM, respectively.
Consider `Nc1nc(=O)ccn1CCOCP(=O)(O)O`, for which the EC50 in assay [2] is 160 µM; in assay [4], greater than 401 µM; in assay [5] it was greater than 401 µM.
`CSc1ncnc2c1ncn2CCOCP(=O)(O)O`: the EC50 in assay [2] is greater than 1310 µM; in assay [4] it was greater than 1310 µM; in assay [5], 164 µM.
For the molecule `Nc1nc(O)c2c(ncn2CCOCP(=O)(O)O)n1`, the half-maximal effective concentration (EC50) in assay [1] was greater than 691 µM; in assay [2], greater than 172 µM; in assay [3] it was greater than 691 µM; in assay [5] it was 152 µM.
